Test system: not listed separately
Experiment: Measurement of Log P values by HPLC on reversed phase columns (EEC directive 79/831 Annex V.A8)
Assay type: physicochemical
Conditions: method [a]: LC-UV, acidic range, 0.1% formic acid in water and acetonitrile as eluent
Experimental: A-1.1. Measurement of Log P Values
Measurement of Log P values as provided herein was performed according to EEC directive 79/831 Annex V.A8 by HPLC (High Performance Liquid Chromatography) on reversed phase columns with the following methods:
^[a] Log P value is determined by measurement of LC-UV, in an acidic range, with 0.1% formic acid in water and acetonitrile as eluent (linear gradient from 10% acetonitrile to 95% acetonitrile).
^[b] Log P value is determined by measurement of LC-UV, in a neutral range, with 0.001 molar ammonium acetate solution in water and acetonitrile as eluent (linear gradient from 10% acetonitrile to 95% acetonitrile).
^[c] Log P value is determined by measurement of LC-UV, in an acidic range, with 0.1% phosphoric acid and acetonitrile as eluent (linear gradient from 10% acetonitrile to 95% acetonitrile).
If more than one Log P value is available within the same method, all the values are given and separated by “+”. […]

Going from `O=C(O)c1c(Oc2cccc(C(F)(F)F)c2)nnc2ccccc12` [1-01] to `COC(=O)c1c(Oc2cccc(C(F)(F)F)c2)nnc2ccccc12` [1-02], the chromatographic logP rises from 2.27 to 3.62.

`O=C(O)c1c(Oc2cccc(Cl)c2)nnc2ccccc12` [1-03] and `Cc1cccc(Oc2nnc3ccccc3c2C(=O)O)c1` [1-04] are within 0.2 log units of each other in chromatographic logP: 2.07 for the first, 1.92 for the second.

Compared with `O=C(O)c1c(Oc2cccc(C(F)(F)F)c2)cnc2ccccc12` [1-07, 3-(3-(trifluoromethyl)phenoxy)quinoline-4-carboxylic acid], `COC(=O)c1c(Oc2cccc(C(F)(F)F)c2)cnc2ccccc12` [1-13, methyl 3-(3-(trifluoromethyl)phenoxy)quinoline-4-carboxylate] is higher in chromatographic logP: 2.57 for the first, 3.8 for the second.

Compared with `COC(=O)c1c(Oc2cccc(C(F)F)c2)nnc2ccccc12` [1-09], `O=C(O)c1c(Oc2cccc(C(F)F)c2)nnc2ccccc12` [1-11] is lower in chromatographic logP: 3.06 for the first, 1.87 for the second.

Going from `CC(C)OC(=O)c1c(Oc2cccc(Cl)c2)nnc2ccccc12` [1-14] to `O=C(O)c1c(Oc2cccc(C3CC3)c2F)nnc2ccccc12` [1-18, 3-(3-cyclopropyl-2-fluoro-phenoxy)cinnoline-4-carboxylic acid], the chromatographic logP falls from 4.19 to 2.23.

`O=C(O)c1c(Oc2cccc(C(F)(F)F)c2)cnc2ccoc12` [1-15, 6-[3-(trifluoromethyl)phenoxy]furo[3,2-b]pyridine-7-carboxylic acid] and `O=C(O)c1c(Oc2cccc(C(F)F)c2)cnc2ccccc12` [1-41] are within 0.2 log units of each other in chromatographic logP: 2.08 for the first, 2.1 for the second.

`CCOC(=O)c1c(Oc2cccc(Br)c2F)nnc2c1CCCC2` [1-21] and `CCOC(=O)c1c(Oc2cccc(Cl)c2F)nnc2c1CCCC2` [1-26, ethyl 3-(3-chloro-2-fluoro-phenoxy)-5,6,7,8-tetrahydrocinnoline-4-carboxylate] are within 0.2 log units of each other in chromatographic logP: 3.85 for the first, 3.76 for the second.

Going from `CCOC(=O)c1c(Oc2cccc(C(F)(F)F)c2)nnc2c1CCCC2` [1-22] to `O=C(O)c1c(Oc2cccc(C(F)(F)F)c2)nnc2c1CCCC2` [1-31], the chromatographic logP falls from 3.9 to 1.6.

First: CCOC(=O)c1c(Oc2cccc(C(F)F)c2)nnc2c1CCCC2 [1-23]
Second: O=C(O)c1c(Oc2cccc(C(F)F)c2)nnc2c1CCCC2 [1-32]
The chromatographic logP of the first is higher: 3.37 for the first, 1.18 for the second.

`O=C(O)c1c(Oc2cccc(Br)c2F)nnc2c1CCCC2` [1-27] and `O=C(O)c1c(Oc2cccc(Cl)c2F)nnc2c1CCCC2` [1-29, 3-(3-chloro-2-fluoro-phenoxy)-5,6,7,8-tetrahydrocinnoline-4-carboxylic acid] are within 0.2 log units of each other in chromatographic logP: 1.55 for the first, 1.46 for the second.

`O=C(O)c1c(Oc2cccc(Br)c2F)cnc2ccccc12` [1-39] and `O=C(O)c1c(Oc2cccc(C3CC3)c2F)cnc2ccccc12` [1-51] are within 0.2 log units of each other in chromatographic logP: 2.59 for the first, 2.71 for the second.

Compared with `C#Cc1cccc(Oc2cnc3ccccc3c2C(=O)O)c1` [1-49], `C=Cc1cccc(Oc2cnc3ccccc3c2C(=O)O)c1` [1-50] is higher in chromatographic logP: 2.2 for the first, 2.41 for the second.

Same assay, conditions: method [b]: LC-UV, neutral range, 0.001 molar ammonium acetate solution in water and acetonitrile as eluent

First: CCOC(=O)c1c(Oc2cccc(C(F)F)c2)nnc2c1CCCC2 [1-23]
Second: CCOC(=O)c1c(Oc2cccc(Cl)c2F)nnc2c1CCCC2 [1-26, ethyl 3-(3-chloro-2-fluoro-phenoxy)-5,6,7,8-tetrahydrocinnoline-4-carboxylate]
The chromatographic logP of the first is lower: 3.19 for the first, 3.56 for the second.

`O=C(O)c1c(Oc2cccc(Br)c2F)nnc2c1CCCC2` [1-27] and `O=C(O)c1c(Oc2cccc(Cl)c2F)nnc2c1CCCC2` [1-29, 3-(3-chloro-2-fluoro-phenoxy)-5,6,7,8-tetrahydrocinnoline-4-carboxylic acid] are within 0.2 log units of each other in chromatographic logP: 0.45 for the first, 0.42 for the second.

Molecule `O=C(O)c1c(Oc2cccc(C(F)(F)F)c2)nnc2c1CCCC2` [1-31] has a chromatographic logP of 0.55.

Same assay, conditions: reversed phase HPLC column, method [a]: LC-UV, acidic range, 0.1% formic acid in water and acetonitrile as eluent

First: C[C@H](NC(=O)c1c(Oc2ccc(Cl)cc2)nnc2ccccc12)c1cccc(C(F)(F)F)c1 (racemic) [I-204]
Second: Cc1ccc(C(F)(F)CNC(=O)c2c(Oc3ccc(Cl)cc3)nnc3ccccc23)c(C)c1 [I-200]
The chromatographic logP of the first is lower: 3.92 for the first, 4.23 for the second.

Going from `O=C(O)c1c(Oc2cccc(C(F)(F)F)c2)nnc2cnccc12` [1-05] to `CCOC(=O)c1c(Oc2cccc(C(F)(F)F)c2)nnc2cnccc12` [1-54], the chromatographic logP rises from 2.04 to 3.51.

Going from `O=C(O)c1c(Oc2cncc(C(F)(F)F)c2)nnc2ccccc12` [1-06] to `Cc1ccc2c(C(=O)O)c(Oc3cccc(C(F)(F)F)c3)nnc2c1` [1-12, 7-methyl-3-(3-(trifluoromethyl)phenoxy)cinnoline-4-carboxylic acid], the chromatographic logP rises from 1.83 to 2.74.

First: COC(=O)c1c(Oc2cccc(C#N)c2)nnc2ccccc12 [1-08]
Second: N#Cc1cccc(Oc2nnc3ccccc3c2C(=O)O)c1 [1-10]
The chromatographic logP of the first is higher: 2.64 for the first, 1.56 for the second.

`O=C(O)c1c(Oc2ccc(Cl)cc2)nnc2ccccc12` [1-16] and `O=C(O)c1c(Oc2cccc(Br)c2)nnc2ccccc12` [1-48] are within 0.2 log units of each other in chromatographic logP: 2.12 for the first, 2.2 for the second.

Going from `O=C(O)c1c(Oc2cccc(C(F)(F)F)c2)nnc2c1OCCO2` [1-17, 3-[3-(trifluoromethyl)phenoxy]-6,7-dihydro-[1,4]dioxino[2,3-c]pyridazine-4-carboxylic acid] to `CC1(C)COc2nnc(Oc3cccc(C(F)(F)F)c3)c(C(=O)O)c2OC1` [1-20], the chromatographic logP rises from 1.31 to 2.02.

Compared with `CC1(C)COc2c(nnc(Oc3cccc(C(F)(F)F)c3)c2C(=O)O)O1` [1-19], `CC1(C)CCc2c1nnc(Oc1cccc(C(F)(F)F)c1)c2C(=O)O` [1-46] is higher in chromatographic logP: 1.82 for the first, 2.49 for the second.

Compared with `CCOC(=O)c1c(Oc2cccc(Cl)c2)nnc2c1CCCC2` [1-24], `O=C(O)c1c(Oc2cccc(Cl)c2)nnc2c1CCCC2` [1-28] is lower in chromatographic logP: 3.72 for the first, 1.28 for the second.

First: CCOC(=O)c1c(Oc2cccc(C3CC3)c2F)nnc2c1CCCC2 [1-25]
Second: O=C(O)c1c(Oc2cccc(C3CC3)c2F)nnc2c1CCCC2 [1-30]
The chromatographic logP of the first is higher: 3.79 for the first, 1.72 for the second.

First: O=C(O)c1c(Oc2cccc(C(F)(F)F)c2)nnc2c1COCC2 [1-33]
Second: O=C(O)c1c(Oc2cccc(C(F)(F)F)c2)nnc2ccsc12 [1-57]
The chromatographic logP of the first is lower: 1.38 for the first, 2.39 for the second.

Going from `O=C(O)c1c(Oc2cccc(C(F)(F)F)c2)nnc2cc(C3CC3)ccc12` [1-34] to `CCOC(=O)c1c(Oc2cccc(C(F)(F)F)c2)nnc2cc(C3CC3)ccc12` [1-53], the chromatographic logP rises from 3.21 to 4.81.

Compared with `O=C(O)c1c(Oc2cccc(Br)c2F)nnc2ccccc12` [1-35], `CCOC(=O)c1c(Oc2cccc(Br)c2F)nnc2ccccc12` [1-37] is higher in chromatographic logP: 2.43 for the first, 4.02 for the second.

First: O=C(O)c1c(Oc2cccc(C3CC3)c2)nnc2ccccc12 [1-36]
Second: O=C(O)c1c(Oc2cccc(C3CC3)c2)cnc2ccccc12 [1-45]
The chromatographic logP of the first is lower: 2.36 for the first, 2.59 for the second.

Compared with `O=C(O)c1c(Oc2cccc(C(F)(F)F)c2)nnc2cc(F)ccc12` [1-38], `CCOC(=O)c1c(Oc2cccc(C(F)(F)F)c2)nnc2cc(F)ccc12` [1-58] is higher in chromatographic logP: 2.62 for the first, 4.16 for the second.

Compared with `CCOC(=O)c1c(Oc2cccc(Cl)c2F)nnc2c1CCC2` [1-40], `O=C(O)c1c(Oc2cccc(Cl)c2F)nnc2c1CCC2` [1-56] is lower in chromatographic logP: 3.37 for the first, 1.53 for the second.

First: CCOC(=O)c1c(Oc2cccc(C(F)(F)F)c2)nnc2ccccc12 [1-42]
Second: CCOC(=O)c1c(Oc2cccc(C(F)(F)F)c2)nnc2cc(C)ccc12 [1-52]
The chromatographic logP of the first is lower: 3.95 for the first, 4.38 for the second.

Going from `Cc1cccc(Oc2cnc3ccccc3c2C(=O)O)c1` [1-43] to `O=C(O)c1c(Oc2cccc(Br)c2)cnc2ccccc12` [1-47], the chromatographic logP rises from 2.18 to 2.48.

Going from `CCOC(=O)c1c(Oc2cccc(C(F)(F)F)c2)nnc2c1CCC2(C)C` [1-44] to `COC(=O)c1c(Oc2cccc(C(F)(F)F)c2)nnc2ccsc12` [1-55], the chromatographic logP falls from 4.4 to 3.34.

First: Cc1ccc(C(F)(F)CNC(=O)c2c(Br)cnc3nccnc23)c(C)c1 [3-01]
Second: Cc1ccc(C(F)(F)CNC(=O)c2c(Cl)nnc3ccccc23)c(C)c1 [3-02]
The chromatographic logP of the first is lower: 2.56 for the first, 3.23 for the second.

Going from `O=C(NCC(F)(F)c1ccc(Cl)cn1)c1c(Oc2cccc(C(F)(F)F)c2)cnc2ccccc12` [I-038] to `N#Cc1cccc(Oc2nnc3ccccc3c2C(=O)NCC(F)(F)c2ccc(Cl)cn2)c1` [I-248], the chromatographic logP falls from 3.74 to 2.84.

Going from `CON(CCc1ccc(Cl)cc1Cl)C(=O)c1c(Oc2cccc(C(F)(F)F)c2)nnc2ccccc12` [I-190] to `CCON(Cc1ccccc1)C(=O)c1c(Oc2cccc(C(F)(F)F)c2)nnc2ccccc12` [I-247], the chromatographic logP falls from 5.03 to 4.24.

With `O=C(N/C=C/c1ccccc1)c1c(Oc2cccc(C(F)(F)F)c2)cnc2ccccc12` [I-217] the chromatographic logP was 3.92.

Same assay, conditions: reversed phase HPLC column, method [b]: LC-UV, neutral range, 0.001 molar ammonium acetate solution in water and acetonitrile as eluent

Compared with `O=C(O)c1c(Oc2cccc(C3CC3)c2F)nnc2c1CCCC2` [1-30], `N#Cc1cccc(Oc2nnc3ccccc3c2C(=O)NCC(F)(F)c2ccc(Cl)cn2)c1` [I-248] is higher in chromatographic logP: 0.6 for the first, 2.94 for the second.

Test system: Colletotrichum lindemuthianum
Experiment: B-8. Colletotrichum lindemuthianum in vitro cell test
Assay type: cell-based
Conditions: 144 h, 20 ppm of active ingredient, 6 days incubation, liquid culture, absorbance, read-out: efficacy (inhibition of fungal growth)
Experimental: B-8. Colletotrichum lindemuthianum In Vitro Cell Test [table] Fungicides were solubilized in DMSO and the solution used to prepare the required range of concentrations. The final concentration of DMSO used in the assay was ≤1%. A spore suspension of C. lindemuthianum was prepared and diluted to the desired spore density. Fungicides were evaluated for their ability to inhibit spores germination and mycelium growth in liquid culture assay. The compounds were added in the desired concentration to the culture medium with spores. After 6 days incubation, fungi-toxicity of compounds was determined by spectrometric measurement of mycelium growth. Inhibition of fungal growth was determined by comparing the absorbance values in wells containing the fungicides with the absorbance in control wells without fungicides.

`O=C(NCC(F)(F)c1ccc(Cl)cn1)c1c(Oc2cccc(C(F)(F)F)c2)cnc2ccccc12` [I-038] and `N#Cc1cccc(Oc2nnc3ccccc3c2C(=O)NCC(F)(F)c2ccc(Cl)cn2)c1` [I-248] fall in the same range of inhibition at 20 ppm: 70 to 79% for the first, 70 to 79% for the second.
